The source of these data is patent publication US20230159509A1 (Amathus Therapeutics, Inc., priority 2020, published 2023).

The experiment deals with T1, TRAP1 enzyme (Homo sapiens, UniProt Q12931).
T1 construct: 150 nM Trap1 enzyme was incubated with various concentrations of the test compound
T1 sequence (Q12931 60-704): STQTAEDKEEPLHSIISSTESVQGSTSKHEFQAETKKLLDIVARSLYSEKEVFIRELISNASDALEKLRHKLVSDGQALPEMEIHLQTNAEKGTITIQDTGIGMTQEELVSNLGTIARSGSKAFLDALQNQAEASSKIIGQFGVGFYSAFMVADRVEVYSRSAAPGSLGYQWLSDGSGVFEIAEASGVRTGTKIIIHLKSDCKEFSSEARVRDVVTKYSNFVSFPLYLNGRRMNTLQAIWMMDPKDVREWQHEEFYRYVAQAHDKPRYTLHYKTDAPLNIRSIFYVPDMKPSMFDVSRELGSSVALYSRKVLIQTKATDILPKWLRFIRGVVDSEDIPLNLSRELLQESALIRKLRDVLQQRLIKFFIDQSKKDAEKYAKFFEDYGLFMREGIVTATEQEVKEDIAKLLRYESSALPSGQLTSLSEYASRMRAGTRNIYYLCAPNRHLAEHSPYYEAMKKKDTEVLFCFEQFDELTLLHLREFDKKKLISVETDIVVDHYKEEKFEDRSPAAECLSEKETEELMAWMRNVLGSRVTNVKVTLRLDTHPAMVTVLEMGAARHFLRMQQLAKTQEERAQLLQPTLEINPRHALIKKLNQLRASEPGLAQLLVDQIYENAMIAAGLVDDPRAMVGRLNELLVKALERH
Briefly: ADP Glo assay of TRAP1 ATPase activity. The format is biochemical. To be noted: 1 h; compound concentration 50 μM; read-out: ADP-Glo Percent Activation at 50 μM. The essentials:
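Compound (0.79–100 μM) was preincubated 30 min at 37° C with 150 nM TRAP1 in 25 mM Pipes pH 7.5, 40 mM KCl, 0.05 mM MgCl2. Reaction started with 20 μM ATP, 60 min at 37° C. ADP measured by luminescence against a standard curve; activation fitted sigmoidally for EC50 and Emax.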
(In ADP-Glo the light output rises with the ADP produced.)

SMILES strings stand for the structures.

For `COc1ncc(NC(=O)c2ccc(S(C)(=O)=O)cc2)cc1S(=O)(=O)Nc1c(C)cccc1C` [compound 2580], the activation at 50 µM lay within 120 to 150%. The value for `COc1ncc(NC(=O)c2ccccc2[S@+](C)[O-])cc1S(=O)(=O)Nc1c(C)cccc1C` [compound 2581] was 151 to 180%. Under `COc1ncc(NC(=O)c2c(C)nn(C)c2Cl)cc1S(=O)(=O)Nc1c(C)cccc1C` [compound 2582] stands 120 to 150%; under `COc1cccc(C(=O)Nc2cnc(OC)c(S(=O)(=O)Nc3c(C)cccc3C)c2)n1` [compound 2583], 181 to 352%; under `COc1ncc(NC(=O)c2cccc(N3CCOCC3)n2)cc1S(=O)(=O)Nc1c(C)cccc1C` [compound 2584], 181 to 352%. The value for `COc1ncc(NC(=O)c2ccn(C)n2)cc1S(=O)(=O)Nc1c(C)cccc1C` [compound 2586] was 120 to 150%; that for `COc1ncc(NC(=O)c2cnn(C3CCOCC3)c2)cc1S(=O)(=O)Nc1c(C)cccc1C` [compound 2587] was 120 to 150%. With `COc1ncc(NC(=O)c2ccc(N3CCOCC3)cc2F)cc1S(=O)(=O)Nc1c(C)cccc1C` [compound 2590], the activation at 50 µM lay within 181 to 352%. For `COc1ncc(NC(=O)c2cccc(CN3CCCC3)c2)cc1S(=O)(=O)Nc1c(C)cccc1C` [compound 2591], the activation at 50 µM lay in the range of 151 to 180%. For `COc1ncc(NC(=O)c2ccc(S(=O)(=O)N(C)C)cc2)cc1S(=O)(=O)Nc1c(C)cccc1C` [compound 2593], the activation at 50 µM was in the range of 151 to 180%. For the molecule `COc1ncc(NC(=O)c2nc3c(s2)CN(C)CC3)cc1S(=O)(=O)Nc1c(C)cccc1C` [compound 2594], the activation at 50 µM fell in the range of 151 to 180%. For `COc1ncc(NC(=O)c2ccsn2)cc1S(=O)(=O)Nc1c(C)cccc1C` [compound 2595], the activation at 50 µM is 120 to 150%.

For the molecule `COc1ncc(NC(=O)c2ccc(C(C)=O)cc2)cc1S(=O)(=O)Nc1c(C)cccc1C` [compound 2597], the activation at 50 µM was in the range of 181 to 352%. For the molecule `COc1ncc(NC(=O)c2cccc(CN3CCCCC3)c2)cc1S(=O)(=O)Nc1c(C)cccc1C` [compound 2599], the activation at 50 µM fell in the range of 181 to 352%. Turning to `CCc1cc(C(=O)Nc2cnc(OC)c(S(=O)(=O)Nc3c(C)cccc3C)c2)n(C)n1` [compound 2600], the activation at 50 µM lay in the range of 151 to 180%. As to `COc1ncc(NC(=O)c2ccn(C(C)C)n2)cc1S(=O)(=O)Nc1c(C)cccc1C` [compound 2601], the activation at 50 µM was 181 to 352%. In the case of `COc1ncc(NC(=O)c2ccccc2N2CCOCC2)cc1S(=O)(=O)Nc1c(C)cccc1C` [compound 2602], the activation at 50 µM is 151 to 180%. For `COc1ncc(NC(=O)c2cc(C)nn2C)cc1S(=O)(=O)Nc1c(C)cccc1C` [compound 2607], the activation at 50 µM is 120 to 150%. For `COc1ncc(NC(=O)c2cn(C)nc2C(F)(F)F)cc1S(=O)(=O)Nc1c(C)cccc1C` [compound 2608], the activation at 50 µM was 151 to 180%.

On to `CCn1nc(C)cc1C(=O)Nc1cnc(OC)c(S(=O)(=O)Nc2c(C)cccc2C)c1` [compound 2609], for which the activation at 50 µM lay in the range of 181 to 352%. Take `COc1ncc(NC(=O)c2ncn(C(C)C)n2)cc1S(=O)(=O)Nc1c(C)cccc1C` [compound 2611]: the activation at 50 µM lay within 120 to 150%. Consider `COc1ncc(NC(=O)c2nn(C)c3c2CCC3)cc1S(=O)(=O)Nc1c(C)cccc1C` [compound 2612], for which the activation at 50 µM lay in the range of 151 to 180%. With `COc1ncc(NC(=O)c2cccc(C(=O)N(C)C)c2)cc1S(=O)(=O)Nc1c(C)cccc1C` [compound 2613], the activation at 50 µM fell in the range of 151 to 180%. Consider `COc1ncc(NC(=O)c2cc(C(F)(F)F)nn2C)cc1S(=O)(=O)Nc1c(C)cccc1C` [compound 2614], for which the activation at 50 µM fell in the range of 120 to 150%. Consider `COc1ncc(NC(=O)c2snnc2C)cc1S(=O)(=O)Nc1c(C)cccc1C` [compound 2615], for which the activation at 50 µM fell in the range of 120 to 150%.

On to `COc1ncc(NC(=O)c2ccns2)cc1S(=O)(=O)Nc1c(C)cccc1C` [compound 2617], for which the activation at 50 µM lay within 120 to 150%. `CCCc1cc(C(=O)Nc2cnc(OC)c(S(=O)(=O)Nc3c(C)cccc3C)c2)nn1C` [compound 2618]: the activation at 50 µM fell in the range of 181 to 352%.

Regarding `CCn1ccc(C(=O)Nc2cnc(OC)c(S(=O)(=O)Nc3c(C)cccc3C)c2)n1` [compound 2619], the activation at 50 µM is 120 to 150%. Under `COc1ncc(NC(=O)c2cccc3c2CCC3)cc1S(=O)(=O)Nc1c(C)cccc1C` [compound 2621] stands 151 to 180%; under `COc1ncc(NC(=O)c2cncc(N3CCCCC3)c2)cc1S(=O)(=O)Nc1c(C)cccc1C` [compound 2622], 120 to 150%; under `COc1ncc(NC(=O)c2nn(C)cc2F)cc1S(=O)(=O)Nc1c(C)cccc1C` [compound 2624], 151 to 180%.

Consider `COc1ncc(NC(=O)c2cccn3cnnc23)cc1S(=O)(=O)Nc1c(C)cccc1C` [compound 2625], for which the activation at 50 µM is 181 to 352%.

On to `CCCc1cc(C(=O)Nc2cnc(OC)c(S(=O)(=O)Nc3c(C)cccc3C)c2)n(C)n1` [compound 2626], for which the activation at 50 µM lay in the range of 181 to 352%. In the case of `COc1cc(C(=O)Nc2cnc(OC)c(S(=O)(=O)Nc3c(C)cccc3C)c2)n(C)n1` [compound 2627], the activation at 50 µM fell in the range of 151 to 180%. In the case of `COc1ncc(NC(=O)c2cn(C)nc2C)cc1S(=O)(=O)Nc1c(C)cccc1C` [compound 2628], the activation at 50 µM was 120 to 150%. With `COc1ncc(NC(=O)c2nc(C)cs2)cc1S(=O)(=O)Nc1c(C)cccc1C` [compound 2629], the activation at 50 µM lay in the range of 181 to 352%. The value for `CCn1cncc1C(=O)Nc1cnc(OC)c(S(=O)(=O)Nc2c(C)cccc2C)c1` [compound 2630] was 120 to 150%. As to `COc1ncc(NC(=O)c2cccc(CN(C)C)c2)cc1S(=O)(=O)Nc1c(C)cccc1C` [compound 2631], the activation at 50 µM was in the range of 151 to 180%. For the molecule `COc1ncc(NC(=O)c2cncn2C)cc1S(=O)(=O)Nc1c(C)cccc1C` [compound 2632], the activation at 50 µM was in the range of 120 to 150%. The value for `COc1ncc(NC(=O)c2cccc(N3CCN(C)CC3)c2)cc1S(=O)(=O)Nc1c(C)cccc1C` [compound 2633] was 181 to 352%; that for `COc1ncc(NC(=O)c2ccccc2CN2CCOCC2)cc1S(=O)(=O)Nc1c(C)cccc1C` [compound 2634] was 181 to 352%.

Consider `COc1ncc(NC(=O)c2cccc3c2CC(=O)N3)cc1S(=O)(=O)Nc1c(C)cccc1C` [compound 2635], for which the activation at 50 µM was 181 to 352%. For the molecule `COc1ncc(NC(=O)c2cnsc2)cc1S(=O)(=O)Nc1c(C)cccc1C` [compound 2636], the activation at 50 µM lay in the range of 120 to 150%. `COc1ncc(NC(=O)c2cnn(C(F)(F)F)c2)cc1S(=O)(=O)Nc1c(C)cccc1C` [compound 2637]: the activation at 50 µM was in the range of 120 to 150%. For `COc1ncc(NC(=O)c2cnn(C)c2Cl)cc1S(=O)(=O)Nc1c(C)cccc1C` [compound 2638], the activation at 50 µM was in the range of 151 to 180%. The value for `COc1ncc(NC(=O)c2cnn(C(C)C)c2)cc1S(=O)(=O)Nc1c(C)cccc1C` [compound 2639] was 151 to 180%; that for `COc1ncc(NC(=O)c2ccc(S(=O)(=O)C(F)F)cc2)cc1S(=O)(=O)Nc1c(C)cccc1C` [compound 2640] was 151 to 180%.

Regarding `COc1ncc(NC(=O)c2ccnc(N(C)C)n2)cc1S(=O)(=O)Nc1c(C)cccc1C` [compound 2641], the activation at 50 µM fell in the range of 181 to 352%. Consider `CCN(CC)S(=O)(=O)c1ccc(C(=O)Nc2cnc(OC)c(S(=O)(=O)Nc3c(C)cccc3C)c2)cc1` [compound 2642], for which the activation at 50 µM lay in the range of 151 to 180%. For `COc1ncc(NC(=O)c2nn(C)cc2C)cc1S(=O)(=O)Nc1c(C)cccc1C` [compound 2643], the activation at 50 µM lay in the range of 181 to 352%. In the case of `COc1ncc(NC(=O)c2ccc(C(F)(F)F)s2)cc1S(=O)(=O)Nc1c(C)cccc1C` [compound 2644], the activation at 50 µM was 151 to 180%. For the molecule `COc1ncc(NC(=O)c2cc(C)nn2C(F)F)cc1S(=O)(=O)Nc1c(C)cccc1C` [compound 2646], the activation at 50 µM was 151 to 180%.

Consider `COc1ncc(NC(=O)c2scnc2C(F)(F)F)cc1S(=O)(=O)Nc1c(C)cccc1C` [compound 2649], for which the activation at 50 µM was in the range of 151 to 180%. On to `COc1ncc(NC(=O)c2cscn2)cc1S(=O)(=O)Nc1c(C)cccc1C` [compound 2650], for which the activation at 50 µM is 120 to 150%. The value for `COc1ncc(NC(=O)c2ccnn2CC(F)(F)F)cc1S(=O)(=O)Nc1c(C)cccc1C` [compound 2651] was 181 to 352%. As to `COc1ncc(NC(=O)c2ccc(N3CCOCC3)cn2)cc1S(=O)(=O)Nc1c(C)cccc1C` [compound 2653], the activation at 50 µM was 151 to 180%.

As for `COc1ncc(NC(=O)c2scnc2C)cc1S(=O)(=O)Nc1c(C)cccc1C` [compound 2654], the activation at 50 µM lay within 120 to 150%. In the case of `COc1ncc(NC(=O)c2ccc(N3CCOCC3)c(F)c2)cc1S(=O)(=O)Nc1c(C)cccc1C` [compound 2655], the activation at 50 µM is 181 to 352%.

Turning to `COc1ncc(NC(=O)c2ccc(-n3nc(C)nc3C)cc2)cc1S(=O)(=O)Nc1c(C)cccc1C` [compound 2656], the activation at 50 µM was in the range of 181 to 352%.
